Measurements published in US4507313A, “Oxadiazolyl-imidazo-[1,4]benzodiazepines and their use in treatment of diseases of the central nervous system” (A/S Ferrosan, priority 1982, dated 1985).

Columns and labels:
benzodiazepine receptors [1] = assay: Displacement of 3H-flunitrazepam binding in vitro (rat forebrain membrane suspension); details: 3H-flunitrazepam 1.0 nM, 0° C., 25 mM KH2PO4 pH 7.1, rat forebrain, 40-60 min
benzodiazepine receptors [2] = assay: Inhibition of 3H-flunitrazepam binding to benzodiazepine receptors in living brain, in vivo; details: mice, usually subcutaneous; 3H-flunitrazepam i.v. 15 min later, killed after further 20 min; 50% reduction of specific binding
Procedure: The ED50 value represents the dose (mg/kg) of a test substance which causes the specific binding of flunitrazepam to benzodiazepine receptors in a living brain to be reduced to 50% of the control value. Such an in vivo test is carried out as follows:
Groups of mice are injected with the test substance at different doses and usually subcutaneously. 15 minutes later, ^3 H-flunitrazepam is given intravenously to the mice and after a further 20 minutes, the mice are killed, their […] by scintillation counting. The ED50 value is determined from dose-response curves.

| Compound | Inhibition of 3H-flunitrazepam-binding in vitro IC50 (benzodiazepine receptors [1]) | Inhibition of 3H-flunitrazepam-binding in vivo ED50 (benzodiazepine receptors [2]) |
| --- | --- | --- |
| CCc1noc(-c2ncn3c2CN(C)C(=O)c2ccccc2-3)n1 [3-[5-(3-ethyl-1,2,4-oxadiazole)-yl]-5,6-dihydro-5-methyl-6-oxo-4H-imidazo[1,5-a][1,4]benzodiazepine] | 12 ng/mL | 2.2 mg/kg |
| CCc1noc(-c2ncn3c2CN(C)C(=O)c2cc(F)ccc2-3)n1 [5,6-dihydro-3-[5-(3-ethyl-1,2,4-oxadiazole)-yl]-8-fluoro-5-methyl-6-oxo-4H-imidazo[1,5-a][1,4]benzodiazepine] | 3.5 ng/mL | 4.5 mg/kg |
| CCc1noc(-c2ncn3c2CN(C)C(=O)c2cc(Cl)ccc2-3)n1 [8-chloro-5,6-dihydro-3-[5-(3-ethyl-1,2,4-oxadiazole)-yl]-5-methyl-6-oxo-4H-imidazo[1,5-a][1,4]benzodiazepine] | > 10 ng/mL | 5.9 mg/kg |
| CCOC(=O)c1ncn2c1CN(C)C(=O)c1ccccc1-2 [ethyl-5,6-dihydro-5-methyl-6-oxo-4H--imidazo[1,5-a][1,4]benzodiazepine-3-carboxylate, reference compound] |  | > 30 mg/kg |
| CCOC(=O)c1ncn2c1CN(C)C(=O)c1cc(Cl)ccc1-2 [ethyl-8-chloro-5,6-dihydro-5-methyl-6-oxo-4H--imidazo[1,5-a][1,4]benzodiazepine-3-carboxylate, reference compound] | 7.9 ng/mL | > 30 mg/kg |
